In patent publication US5939428A, “Alkyl N-[3-(acridin-9-yl)amino-5-hydroxymethyl] phenylcarbamates” (National Health Research Institutes, priority 1998, dated 1999):
Each block holds one compound with its values, some of them ahead of it.

Assays:
[1] = mouse, in vivo; cited from earlier work
[2] = test system: leukemia and several solid tumors; conditions: against growth of leukemia and several solid tumors, in vitro and in vivo; cited from earlier work
[3] = test system: murine leukemia and solid tumors (a mammary adenocarcinoma, B-16 melanoma and Lewis lung carcinoma); conditions: cited from earlier work
[4] = longer than m-AMSA; cited from earlier work
HL-60 cells = experiment: in vitro cytotoxicity against growth of human leukemic HL-60 cells; type: cell-based; conditions: read-out: IC50 for cell growth inhibition, HL-60
Protocol: (§1) The in vitro cytotoxicity of the N-[3-(acridin-9-yl)amino-5-hydroxymethyl]phenylcarbamate derivatives of the invention against growth of human leukemic HL-60 cells and 833K tumor cells, and the chemotherapeutic effects of ethyl N-[3-(acridin-9-yl)amino-5-hydroxymethyl]phenylcarbamate on Sarcoma 180 and Lewis lung carcinoma tumor bearing B6 D2 F1 mice were evaluated. The compound 3-(acridin-9-yl)amino-5-hydroxymethylaniline (AHMA) was also evaluated for comparison.
(§2) The in vitro cytotoxicity against growth of human
(§3) leukemic HL-60 cells and 833K tumor cells.

833K tumor cells = experiment: in vitro cytotoxicity against growth of 833K tumor cells; type: cell-based; conditions: Homo sapiens, read-out: IC50 for cell growth inhibition, 833K
Protocol: as §1, §2, §3

Sarcoma 180 = experiment: chemotherapeutic effect on Sarcoma 180 tumor bearing B6 D2 F1 mice; type: in vivo; conditions: for Average Tumor Volume (T/C), Day 7 / Average Weight Change, Day 7: QD × 5, day 7
Text: Sarcoma 180 (3 × 10^6 cells) innoculated subcutaneously
(s.c.) on day 0. Treatment started on day 1, peritoneal injection (i.p.),

Lewis lung carcinoma = experiment: chemotherapeutic effect on Lewis lung carcinoma tumor bearing B6 D2 F1 mice; type: in vivo; conditions: for Average Weight Change, Day 7 / Average Weight Change, Day 10: mouse, in vivo, ip
Protocol: as §1
The chemotherapeutic effects on Sarcoma 180 and
Lewis lung carcinoma tumor bearing B6 D2 F1 mice.^a […]
carcinoma (4 × […] cells) inoculated s.c. on day (-2).
Treatment started on day 1, i.p., QD × 5. Control had 4 mice and
each dose had 3 mice. Tumor sizes were evaluated on day 7 and day 10.

[5] = mouse and rat; GSH conjugates; cited from earlier work
[6] = 37° C.; cited from earlier work
[7] = Lewis lung carcinoma, 3.0 mg/kg i.p., QD × 5
[8] = Lewis lung carcinoma, 6.0 mg/kg i.p., QD × 5

Structure (SMILES): CNC(=O)c1cccc2c(Nc3ccc(NS(C)(=O)=O)cc3OC)c3cccc(C)c3nc12 [CI-921]
- metabolites detected in addition to the 5'- and 6'-GSH conjugates [1]: two other metabolites, namely C9-GSH and the 4-hydroxymethyl derivatives of CI-921, were detected

Structure (SMILES): Nc1cc(CO)cc(Nc2c3ccccc3nc3ccccc23)c1 [compound 1, 3-(acridin-9-yl)amino-5-hydroxymethylaniline]
- antitumor activity [2]: potent antitumor activity against growth of leukemia and several solid tumors both in vitro and in vivo with long half-life
- toxicity toward the host compared with m-AMSA and VP-16 ([3]; mouse, in vivo): less toxic toward the host
- antitumor efficacy compared with m-AMSA and VP-16 ([3]; murine leukemia and solid tumors): greater efficacy against murine leukemia and solid tumors (a mammary adenocarcinoma, B-16 melanoma and Lewis lung carcinoma) than m-AMSA and VP-16
- plasma half-life [4]: 1.5 h
- IC50 (HL-60 cells): 25 nM

Structure (SMILES): CC(C)COC(=O)Nc1cc(CO)cc(Nc2c3ccccc3nc3ccccc23)c1 [compound 3, i-butyl N-[3-(acridin-9-yl)amino-5-hydroxymethyl]phenylcarbamate]
- IC50 (833K tumor cells): 21 nM
- IC50 (HL-60 cells): 18 nM

- Average Weight Change, Day 7 (Sarcoma 180; 3.0 mg/kg i.p.): -2.0 gm
- Average Weight Change, Day 10 (Sarcoma 180; 3.0 mg/kg i.p., QD × 5, day 10): -0.7 gm
- Average Weight Change, Day 7 (Sarcoma 180; 5.0 mg/kg i.p.): -2.6 gm
- Average Weight Change, Day 10 (Sarcoma 180; 5.0 mg/kg i.p., QD × 5, day 10): +1.0 gm
- Average Weight Change, Day 7 (Sarcoma 180; 7.0 mg/kg i.p.): -3.4 gm
- Average Weight Change, Day 10 (Sarcoma 180; 7.0 mg/kg i.p., QD × 5, day 10): -0.1 gm
- Average Weight Change, Day 7 (Lewis lung carcinoma; 3 mg/kg): -2.3 gm
- Average Weight Change, Day 10 (Lewis lung carcinoma; 3 mg/kg): -1.3 gm
- Average Weight Change, Day 7 (Lewis lung carcinoma; 6 mg/kg): -3 gm
- Average Weight Change, Day 10 (Lewis lung carcinoma; 6 mg/kg): -2.6 gm
- Average Weight Change, Day 7 (Lewis lung carcinoma; 8 mg/kg): -3.6 gm
Structure (SMILES): CCOC(=O)Nc1cc(CO)cc(Nc2c3ccccc3nc3ccccc23)c1 [compound 2, ethyl N-[3-(acridin-9-yl)amino-5-hydroxymethyl]phenylcarbamate]
- Average Tumor Volume (T/C), Day 7 (Sarcoma 180; 3.0 mg/kg i.p.): 1.24
- Average Tumor Volume (T/C), Day 10 (Sarcoma 180; 3.0 mg/kg i.p., QD × 5, day 10): 1.21
- Average Tumor Volume (T/C), Day 7 (Sarcoma 180; 5.0 mg/kg i.p.): 0.06
- Average Tumor Volume (T/C), Day 10 (Sarcoma 180; 5.0 mg/kg i.p., QD × 5, day 10): 0.63
- Average Tumor Volume (T/C), Day 7 (Sarcoma 180; 7.0 mg/kg i.p.): 0.22
- Average Tumor Volume (T/C), Day 10 (Sarcoma 180; 7.0 mg/kg i.p., QD × 5, day 10): < 0.01
- Tumor detectability (footnote b) (Sarcoma 180; 7.0 mg/kg i.p., QD × 5, day 10): Tumor not detectable
- Average Tumor Volume (T/C), Day 7 (Lewis lung carcinoma; [7]): 0.8
- Average Tumor Volume (T/C), Day 10 (Lewis lung carcinoma; [7]): 0.63
- Average Tumor Volume (T/C), Day 7 (Lewis lung carcinoma; [8]): 0.44
- Average Tumor Volume (T/C), Day 10 (Lewis lung carcinoma; [8]): 0.37
- Mortality (footnote c) (Lewis lung carcinoma; Lewis lung carcinoma, 8.0 mg/kg i.p., QD × 5, 3 mice): One mouse died on day 8 and two mice died on day 9
- Average Tumor Volume (T/C), Day 7 (Lewis lung carcinoma; Lewis lung carcinoma, 8.0 mg/kg i.p., QD × 5): 0.21
- IC50 (833K tumor cells): 20 nM
- IC50 (HL-60 cells): 16 nM

Structure (SMILES): COc1cc(NS(C)(=O)=O)ccc1Nc1c2ccccc2nc2ccccc12 [m-AMSA, 4'-(9-acridinylamino)methanesulfon-m-anisidine]
- major biliary metabolites [5]: the major biliary metabolites of this agent were the 5'- and 6'-glutathione (GSH) conjugates, with no C9-GSH conjugate being found
- half-life in the presence of fresh mouse blood [6]: ca. 30 min
- dose excreted as the glutathione conjugate in the bile [1]: More than 50%

Structure (SMILES): CCOC(=O)Nc1cc(CO)cc(Nc2c3cccc(C)c3nc3c(C(=O)NC)cccc23)c1 [compound 5, ethyl N-[3-(4-methylaminocarbonyl-5-methylacridin-9-yl)amino-5-hydroxymethyl]phenylcarbamate]
- IC50 (833K tumor cells): 34 nM
- IC50 (HL-60 cells): 83 nM

Structure (SMILES): CNC(=O)c1cccc2c(Nc3cc(N)cc(CO)c3)c3cccc(C)c3nc12 [compound 4, 3-(5-methyl-4-methylamino-carbonylacridin-9-yl)amino-5-hydroxymethylaniline]
- IC50 (833K tumor cells): 244 nM
- IC50 (HL-60 cells): 144 nM
